Legend:
Type in all cases: in vivo, mouse
ovariectomy model mice [1] = experiment: Forced swimming test, modified (Test Example 2); conditions: oral for 14 days; for Immobility Time (second) Mean: 2 hours after last dose, 2nd minute to 4th minute, mean of 6 animals; for antidepressant effect: conclusion from Table 1 and FIG. 11
Method: Test Example 1 was partly modified as below, and a forced swimming test was performed to evaluate an antidepressant effect using the compounds (DDA-7 and DDA-14 to DDA-16) prepared in Preparation Examples 3 to 6 as test compounds. Regarding DDA-14 and DDA-15, a naturally occurring racemic form thereof has been reported, and thus, similarly to the mixture ratio by weight thereof, DDA-14 and DDA-15 were mixed at the ratio of 3:1 and prepared (2E,9S+9R)-9-hydroxy-2-decenoic acid (racemic form).
The experimental animals (ovariectomy model mice), to which each test compound was administered for 14 days (the first day of the administration was the following day after the day the ovaries were removed), were forced to swim. A 0.32 mg amount of compound DDA-7, 0.29 mg and 0.088 mg of DDA-14 and DDA-15, respectively, and 0.29 mg of DDA-16 were each individually dissolved in 80 ml of ion exchange water for administration. On the 14th day from the day each test compound administration was commenced, and 2 hours after the test compound was orally administered, each of the experimental animals was placed into a water tank, and the swimming time was measured for 10 minutes (test group). As a control experiment, the same procedure was performed as above, except that distilled water for injection was orally administered in place of the test compounds to each of the experimental animals (ovariectomy model mouse) in an amount of 0.1 ml per 10 g of body weight (control group).
The ten-minute swimming time was divided into one-minute periods to conduct analysis.

ovariectomy model mice [2] = experiment: Forced swimming test (Test Example 1)
Method: A forced swimming test has been widely used in the preclinical assessment of the antidepressant effect, and clinically effective antidepressants are known to shorten the immobility time (Porsort et al., Nature, 266, 730-732, 1977).
Therefore, the D4-II-3E-4 fraction ((2E)-9,10-dihydroxy-2-decenoic acid) prepared in Preparation Example 1 was administered to the animal model to undergo a forced swimming test (Nature, 266:730-732, 1977), and the antidepressant effect of the compound was evaluated.
ICR female mice (9 weeks old; weight: 29 to 33 g) were used as experimental animals. All of the mice were group-housed (10 mice per cage), and the feed and white flake bedding were exchanged once per week. The surgery to remove the ovaries was performed according to the following method.
Under pentobarbital anesthesia (65 mg/kg, i.p.), a 5 mm incision was made in the dorsal abdomen of a mouse, and the ovaries was temporarily exposed to the outside of the body. After ligation between the ovaries and uterus end (i.e. oviducts), the ovaries were dissected. Thereafter, the oviducts were promptly returned to the intraperitoneal cavity, and the abdominal wall and the skin were sutured.
A 0.25 mg amount of the D4-II-3E-4 fraction (a freeze-dried product) prepared in Preparation Example 1 was dissolved in 50 ml of ion exchange water to prepare a suspension. […]
Water at a temperature of 25° C. was introduced into a clear measuring cylinder made of polycarbonate (inner diameter: 10 cm; height: 25 cm) so that the water surface level was adjusted to 10 cm from the bottom. Each mouse was forced to swim for 6 minutes while being recorded by a high-sensitivity video system. Thereafter, the recorded image was observed, and by means of an event recorder, the time (in seconds) during which the mouse was floating in an immobile state was measured (an analysis was made for the duration of the 4 minutes from the second minute onward).

ovariectomy model mice [3] = experiment: Uterus weight measurement after forced swimming test (Test Example 1); conditions: dose that shortens the immobility time, wet weight, FIG. 9
Method: After conducting the forced swimming test (after completing the observation of the immobility time), an overdose of pentobarbital (100 mg/kg or more) was administered to each of the mice to cause them to stop breathing, and the mice were sacrificed. Then, the uterus was collected from each of the mice through an incision in the abdomen. The collected uterus was spread onto a filter paper, and after the serosa and blood vessel adhering to the uterus were removed, the weight of the uterus was promptly measured on a wet basis with an analytical balance.

Q: Which “Immobility Time (second) Mean” value (ovariectomy model mice [1]) does the source give for `CC(O)CCCCC/C=C/C(=O)O` (racemic) [DDA14 + DDA15, (2E,9S+9R)-9-hydroxy-2-decenoic acid] here?
A: 98.82 s

Q: And the antidepressant effect (ovariectomy model mice [1])?
A: exhibit an antidepressant effect

Q: Which antidepressant effect (ovariectomy model mice [2]; oral 70, 140, 210 mg/kg/day, FIG. 10) does the source give for `O=C(O)C=CCCCCCCCO` [10-hydroxydecenoic acid, reference compound] here?
A: does not exhibit an antidepressant effect

Q: Which results are given for `O=C(O)/C=C/CCCCCC(O)CO` (stereo not shown) [D4-II-3E-4 fraction, (2E)-9,10-dihydroxy-2-decenoic acid]?
A: uterus weight compared with control group (ovariectomy model mice [3]): a difference in the uterus weights was not recognized; immobility time compared with control group (ovariectomy model mice [2]; 0.25 mg in 50 ml water, 0.1 ml per 10 g body weight orally once a day for 2 weeks, 4 minutes from the second minute onward, FIG. 8): significantly shorter; antidepressant effect (ovariectomy model mice [2]; oral, once a day for 2 weeks, conclusion from FIG. 8): exhibits an antidepressant effect

Q: Which results are given for `O=C(O)/C=C\CCCCC[C@@H](O)CO` [DDA-7, (2Z,9R)-9,10-dihydroxy-2-decenoic acid]?
A: Immobility Time (second) Mean (ovariectomy model mice [1]): 80.14 s; antidepressant effect (ovariectomy model mice [1]): exhibit an antidepressant effect

Q: With `CC(=O)OCCCC/C=C/C(=O)O` [DDA-16, (2E)-7-acetoxy-2-heptenoic acid] as the molecule, how does the “Immobility Time (second) Mean” value (ovariectomy model mice [1]) read?
A: 87.14 s

Q: What about the antidepressant effect (ovariectomy model mice [1]) of the same molecule?
A: exhibit an antidepressant effect

— patent US8119839B2, “Carboxylic acid and antidepressant composition containing the same as active ingredient” (Yamada Apiculture Center, Inc., priority 2007, dated 2012)
